Here are results for two compounds from US6713493B2, “Use of nicergoline in the treatment of spasticity” (Aventis Pharma S.A., priority 1998, dated 2004).

For assay [1], the system named is spasticity in amyotrophic lateral sclerosis. The settings on record: riluzole sold as Rilutek for ALS; cited from earlier work.
Assay [2] relates to stiffness (spasticity) in patients suffering from ALS. As to the kind of experiment: Descriptive study on 9 ALS patients: stiffness self-assessed on a 100 mm visual analog scale (VAS) before and after nicergoline. Format: in vivo, human (patients). The method, then: A descriptive study on 9 patients suffering from ALS was carried out. The main criterion defined is the stiffness, measured using a visual analog scale (VAS), of 100 mm, or the individual rates by self-assessment the severity of the stiffness perceived. The patients receive 100 mg/day of riluzole and 15 mg IV of nicergoline on the first day and 30 mg IV on the next 4 days. The duration of infusion was more than 4 hours to avoid any risk of hypotension. The measurement was carried out before and after administration of nicergoline.

With `Nc1nc2ccc(OC(F)(F)F)cc2s1` [Riluzole, 2-amino-6-trifluoro-methoxybenzothiazole], the “Effect on spasticity (in words)” value in assay [1] is listed as “no effect on the spasticity”.
For `CO[C@]12C[C@@H](COC(=O)c3cncc(Br)c3)CN(C)[C@@H]1Cc1cn(C)c3cccc2c13` [nicergoline, (8β)-10-methoxy-1,6-dimethylergoline-8-methanol-5-bromonicotinate], in assay [2] (9 ALS patients on riluzole 100 mg/day, nicergoline 15 mg IV day 1, 30 mg IV next 4 days, measured 4 days later (from 4 to 8 d), stiffness before administration 67.33±25), the “Stiffness (VAS, 100 mm) after administration of nicergoline, mean±standard deviation” value was 48.11±19 mm. For the same compound, the “Intra-individual difference in stiffness (VAS) before vs after nicergoline, mean±standard deviation” value in assay [2] (9 ALS patients, same regimen, range −8 to +57, comparison at zero difference significant (t=2.809, p (2α)=0.0229)) is 19.22±20.5 mm. Also, the “Effect on pyramidal spasticity of neurological diseases involving an attack of the pyramidal pathway (in words)” value in assay [2] (in particular spasticity during ALS) is “reduces the pyramidal spasticity”.
